In patent publication US20250312352A1, “GLP-1R MODULATING COMPOUNDS” (Gilead Sciences, Inc., priority 2021, published 2025):

Target: T1, GLP-1R (Homo sapiens, UniProt P43220)
T1 construct: host or cells: CHO cells
Assay: GLP-1R activation cAMP assay (Assay 1 or Assay 2)
Type: cell-based
Settings: cAMP increase in CHO cells stably expressing GLP-1R; compounds run on one of the two cAMP assays
How it was run: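 CHO cells stably expressing human GLP-1R were incubated 1 h in HBSS/20 mM HEPES/0.1% BSA, then exposed to 10-point agonist dilutions for 30 min at 37 °C. cAMP increase was measured with an HTRF Gs dynamic kit; EC50 from sigmoidal fit of response versus log concentration.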

T1 sequence (P43220 24-463): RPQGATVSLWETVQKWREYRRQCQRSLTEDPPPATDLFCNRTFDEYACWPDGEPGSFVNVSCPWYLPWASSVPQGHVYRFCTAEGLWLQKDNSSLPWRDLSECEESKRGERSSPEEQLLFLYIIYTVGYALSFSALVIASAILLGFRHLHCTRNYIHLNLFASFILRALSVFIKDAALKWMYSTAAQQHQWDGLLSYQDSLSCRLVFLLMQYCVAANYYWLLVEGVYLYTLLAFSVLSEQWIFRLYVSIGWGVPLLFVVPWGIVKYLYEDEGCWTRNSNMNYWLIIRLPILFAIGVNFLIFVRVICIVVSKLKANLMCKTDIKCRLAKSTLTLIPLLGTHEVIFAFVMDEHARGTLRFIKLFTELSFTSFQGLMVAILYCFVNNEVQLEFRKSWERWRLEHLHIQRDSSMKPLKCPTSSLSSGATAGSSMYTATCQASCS

Compound | EC50 [pM]
O=C(O)c1ccc2nc(Cc3cc(F)c(-c4cccc(OCc5cc6n(n5)CC(F)(F)C6)n4)cc3F)n(C[C@@H]3CCO3)c2c1 [Example 74, (S)-2-(4-(6-((5,5-difluoro-5,6-dihydro-4H-pyrrolo[1,2-b]pyrazol-2-yl)methoxy)pyridin-2-yl)-2,5-difluorobenzyl)-1-(oxetan-2-ylmethyl)-1H-benzo[d]imidazole-6-carboxylic acid] | 250
COCCn1c(Cc2cc(F)c(-c3cccc(OCc4ccc(C#Cc5cncn5C)cc4F)n3)cc2F)nc2ccc(C(=O)O)cc21 [Example 233, 2-(2,5-difluoro-4-(6-((2-fluoro-4-((1-methyl-1H-imidazol-5-yl)ethynyl)benzyl)oxy)pyridin-2-yl)benzyl)-1-(2-methoxyethyl)-1H-benzo[d]imidazole-6-carboxylic acid] | 1200
CCOc1nc(Cl)c(COc2cccc(-c3cc(F)c(Cc4nc5ccc(C(=O)O)cc5n4C[C@@H]4CCO4)cc3F)n2)s1 [Example 353, (S)-2-(4-(6-((4-chloro-2-ethoxythiazol-5-yl)methoxy)pyridin-2-yl)-2,5-difluorobenzyl)-1-(oxetan-2-ylmethyl)-1H-benzo[d]imidazole-6-carboxylic acid] | 188
NC(=O)c1ccc(COc2cccc(-c3cc(F)c(Cc4nc5ccc(C(=O)O)cc5n4C[C@@H]4CCO4)cc3F)n2)o1 [Example 171, (S)-2-(4-(6-((5-carbamoylfuran-2-yl)methoxy)pyridin-2-yl)-2,5-difluorobenzyl)-1-(oxetan-2-ylmethyl)-1H-benzo[d]imidazole-6-carboxylic acid] | 2940
COCCn1c(Cc2cc(F)c(-c3cccc(OCc4ccc(-c5cnn(C6CC6)c5)cc4F)n3)cc2F)nc2ccc(C(=O)O)cc21 [Example 225, 2-(4-(6-((4-(1-cyclopropyl-1H-pyrazol-4-yl)-2-fluorobenzyl)oxy)pyridin-2-yl)-2,5-difluorobenzyl)-1-(2-methoxyethyl)-1H-benzo[d]imidazole-6-carboxylic acid] | 700
Cn1cc(-n2ccc(COc3cccc(-c4cc(F)c(Cc5nc6ccc(C(=O)O)cc6n5C[C@@H]5CCO5)cc4F)n3)n2)cn1 [Example 82, (S)-2-(2,5-difluoro-4-(6-((1′-methyl-1′H-[1,4′-bipyrazol]-3-yl)methoxy)pyridin-2-yl)benzyl)-1-(oxetan-2-ylmethyl)-1H-benzo[d]imidazole-6-carboxylic acid] | 5530
O=C(O)c1ccc2nc(Cc3cc(F)c(-c4cccc(OCc5ccc(-c6cn(C7COC7)nn6)cc5F)n4)cc3F)n(C[C@@H]3CCO3)c2c1 [Example 215, (S)-2-(2,5-difluoro-4-(6-((2-fluoro-4-(1-(oxetan-3-yl)-1H-1,2,3-triazol-4-yl)benzyl)oxy)pyridin-2-yl)benzyl)-1-(oxetan-2-ylmethyl)-1H-benzo[d]imidazole-6-carboxylic acid] | 180
O=C(O)c1ccc2nc(Cc3cc(F)c(-c4cccc(OCc5cc(C(F)(F)F)co5)n4)cc3F)n(C[C@@H]3CCO3)c2c1 [Example 18, (S)-2-(2,5-difluoro-4-(6-((4-(trifluoromethyl)furan-2-yl)methoxy)pyridin-2-yl)benzyl)-1-(oxetan-2-ylmethyl)-1H-benzo[d]imidazole-6-carboxylic acid] | 320
COc1nnc(COc2nc(-c3cc(Cl)c(Cc4nc5ccc(C(=O)O)cc5n4[C@@H]4COCC4(C)C)cc3C)ccc2F)s1 [Example 441, (S)-2-(2-chloro-4-(5-fluoro-6-((5-methoxy-1,3,4-thiadiazol-2-yl)methoxy)pyridin-2-yl)-5-methylbenzyl)-1-(4,4-dimethyltetrahydrofuran-3-yl)-1H-benzo[d]imidazole-6-carboxylic acid] | 475
O=C(O)c1ccc2nc(Cc3cc(F)c(-c4cccc(OCc5cnc(C(=O)NC6CCCC6)cc5F)n4)cc3F)n(C[C@@H]3CCO3)c2c1 [Example 244, (S)-2-(4-(6-((6-(cyclopentylcarbamoyl)-4-fluoropyridin-3-yl)methoxy)pyridin-2-yl)-2,5-difluorobenzyl)-1-(oxetan-2-ylmethyl)-1H-benzo[d]imidazole-6-carboxylic acid] | 2280
